According to US9018175B2 (Takeda GmbH, priority 2009, dated 2015):

Tests used:
[1] = target: T1, human PDE5 (Homo sapiens, UniProt O76074); test: Inhibition of PDE5 activity (SPA, [3H]cGMP, platelet lysate); assay type: biochemical; conditions: PDE5 from human platelet lysate; values given as bins; read-out: PDE5A inhibitory values measured as −logIC50 (converted)
T1 construct: from tissue; host or cells: human platelets from fresh donor blood (10,000 g supernatant of sonicated platelets)
Experimental: As a source for human PDE5, platelets are used. For that purpose, 150 ml fresh blood from human donors anticoagulated with citrate [final concentration 0.3% (w/v)] is centrifuged at 200 g for 10 min to obtain the so-called platelet-rich-plasma (PRP) as a supernatant. 1/10 volume of ACD solution (85 mM Na3-citrate, 111 mM D-glucose, 71 mM citric acid, pH 4.4) is added to 9/10 volume of PRP. After centrifugation (1,400 g, 10 min) the cell pellet is resuspended in 3 ml homogenization buffer (NaCl 140 mM, KCl 3.8 mM, EGTA (ethylene glycol tetraacetic acid) 1 mM, MgCl2 1 mM, Tris-HCl 20 mM, beta-mercaptoethanol 1 mM, pH 8.2) plus protease-inhibitor mix giving rise to the final concentrations of 0.5 mM Pefablock (Roche), 10 μM Leupeptin, 5 μM Trypsininhibitor, 2 mM Benzamidin and 10 μM Pepstatin A. The suspension is sonified and thereafter centrifuged for 15 min at 10,000 g. The resulting supernatant (platelet lysate) is used for enzymatic testings.
PDE5 activities were measured in a 96-well platform using SPA (scintillation proximity assay) yttrium silicate beads (RPNQ1050 from GE Healthcare). In a first step the PDE activity operates hydrolysis of either [^3H] cGMP (substrate) into [^3H] 5′GMP. In a second step substrate and product are distinguished following addition of SPA yttrium silicate beads. Indeed, in the presence of zinc sulphate the linear [^3H] […] Close proximity of bound [^3H] […] The test volume is 100 pl and contains 20 mM Tris buffer (pH 7.4), 0.1 mg of BSA (bovine serum albumin)/ml, 5 mM Mg^2+, 1 μM motapizone (PDE3 Inhibitor), 10 nM PDE2 inhibitor 2-(3,4-dimethoxybenzyl)-7-[(1R,2R)-2-hydroxy-1-(2-phenylethyl)propyl]-5-methylimidazo[5,1-f][1,2,4]triazin-4(3H)-one, […] (cyclic guanosine monophosphate) (including about 50,000 cpm of [3H]cGMP as a tracer), 1 pl of the respective compound dilution in dimethylsulfoxide (DMSO) and sufficient PDE5-containing platelet lysat (10,000, g supernatant, see above) to ensure that 10-20 wt % of the cGMP is converted under the said experimental conditions. […] After a preincubation of 5 min at 37° C., the reaction is started by adding the substrate (cGMP) and the assay is incubated for a further 15 min; after that, it is stopped by adding SPA beads (50 pl). In accordance with the manufacturer's instructions, the SPA beads had previously been resuspended in water, but are then diluted 1:3 (v/v) in water; the diluted solution also contains 3 mM […]3-isobutyl-1-methylxanthine (IBMX) to ensure a complete PDE activity stop. After the beads have been sedimented (>30 min), the MTP's are analyzed in commercially available luminescence detection devices. The corresponding IC50 values of the compounds for the inhibition of PDE activity are determined from the concentration-effect curves by means of non-linear regression.

[2] = target: T2, PDE4B1 (Homo sapiens, UniProt Q07343); test: Inhibition of PDE4B1 activity (SPA, [3H]cAMP); assay type: biochemical; conditions: recombinant PDE4B1 expressed in SF21 cells; 0.5 pM [sic] cAMP; values given as bins; read-out: PDE4B1 inhibitory values measured as −logIC50 (converted)
T2 construct: made in house; host or cells: SF21 insect cells (baculovirus; pCR-Bac vector)
Experimental: The PDE4B1 (GB no. L20966) was a gift of Prof. M. Conti (Stanford University, USA). It was amplified from the original plasmid (pCMV5) via PCR with primers Rb18 (5′-[…]-3′) and Rb10 (5′-[…]-3′) and cloned into the pCR-Bac vector (Invitrogen, Groningen, NL).
The recombinant baculovirus was prepared by means of homologous recombination in SF9 insect cells. The expression plasmids were cotransfected with Baculo-Gold DNA (Pharmingen, Hamburg) using a standard protocol (Pharmingen, Hamburg). Wt virus-free recombinant virus supernatants were selected using plaque assay methods. After that, high-titre virus supernatants were prepared by amplifying 3 times. PDE4B1 was expressed in SF21 cells by infecting 2×10^6 cells/ml with an MOI (multiplicity of infection) between 1 and 10 in the serum-free medium Insect Express Sf9-S2 (PAA, Pasching, Austria). The cells were cultured at 28° C. for 48-72 hours, after which they were pelleted for 5-10 min at 1000×g and 4° C.
The SF21 insect cells were resuspended, at a concentration of approx. 10^7 cells/ml, in ice-cold (4° C.) homogenization buffer (20 mM Tris, pH 8.2, containing the following additions: 140 mM NaCl, 3.8 mM KCl, 1 mM EGTA, 1 mM MgCl2, 10 mM e-mercaptoethanol, 2 mM benzamidine, 0.4 mM Pefablock, 10 pM leupeptin, 10 pM pepstatin A, 5 pM trypsin inhibitor) and disrupted by ultrasonication. The homogenate was then centrifuged for 10 min at 1000, g and the supernatant was stored at −80° C. until subsequent use (see below). The protein content was determined by the Bradford method (BioRad, Munich) using BSA as the standard.
PDEB1 activities were measured in a 96-well platform using SPA (scintillation proximity assay) yttrium silicate beads (RPNQ1050 from GE Healthcare). In a first step the PDE activity operates hydrolysis of either [^3H] cAMP (substrate) into [^3H] 5′AMP. In a second step substrate and product are distinguished following addition of SPA yttrium silicate beads. Indeed, in the presence of zinc sulphate the linear [^3H] […] Close proximity of bound [^3H] […] The test volume is 100 pl and contains 20 mM Tris buffer (pH 7.4), 0.1 mg/ml of BSA, 5 mM Mg^2+, […] (including about 50,000 cpm of [3H]cAMP), 1 pl of the respective substance dilution in DMSO and sufficient recombinant PDE (1000, g supernatant, see above) to ensure that 10-20% of the cAMP is converted under the said experimental conditions. […] After a preincubation of 5 min at 37° C., the reaction is started by adding the substrate (cAMP) and the assays are incubated for a further 15 min; after that, they are stopped by adding SPA beads (50 pl). In accordance with the manufacturer's instructions, the SPA beads had previously been resuspended in water, but were then diluted 1:3 (v/v) in water; the diluted solution also contains 3 mM IBMX to ensure a complete PDE activity stop. After the beads have been sedimented (>30 min), the MTP's are analyzed in commercially available luminescence detection devices. The corresponding IC50 values of the compounds for the inhibition of PDE4B1 activity are determined from the concentration-effect curves by means of non-linear regression.

T2 sequence (Q07343 whole entry): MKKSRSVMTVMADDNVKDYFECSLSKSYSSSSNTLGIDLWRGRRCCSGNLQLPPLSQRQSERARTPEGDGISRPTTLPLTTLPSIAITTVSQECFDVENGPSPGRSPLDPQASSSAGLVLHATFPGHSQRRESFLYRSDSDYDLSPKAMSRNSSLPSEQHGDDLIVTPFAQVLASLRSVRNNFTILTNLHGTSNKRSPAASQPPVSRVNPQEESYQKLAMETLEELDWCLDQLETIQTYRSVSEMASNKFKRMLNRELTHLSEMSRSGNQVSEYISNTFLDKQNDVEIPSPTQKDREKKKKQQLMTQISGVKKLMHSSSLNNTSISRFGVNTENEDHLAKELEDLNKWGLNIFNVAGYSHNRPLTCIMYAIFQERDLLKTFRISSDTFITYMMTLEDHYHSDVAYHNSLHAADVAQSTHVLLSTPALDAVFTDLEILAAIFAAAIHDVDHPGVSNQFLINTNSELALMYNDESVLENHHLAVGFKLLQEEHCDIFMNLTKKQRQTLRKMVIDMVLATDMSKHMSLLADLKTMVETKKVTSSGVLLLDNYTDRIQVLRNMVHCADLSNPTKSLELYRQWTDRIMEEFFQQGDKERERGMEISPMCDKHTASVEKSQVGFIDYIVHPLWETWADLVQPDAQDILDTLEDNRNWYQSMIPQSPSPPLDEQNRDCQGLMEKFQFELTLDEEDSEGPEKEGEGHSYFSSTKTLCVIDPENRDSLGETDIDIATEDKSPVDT

Row | SMILES | IC50 [1] [nM] | IC50 [2] [nM]
1 | CCOc1cc2c(cc1OC)C(c1ccc(C(=O)N3CCC(n4c(=O)c5sc(-c6ccc(F)cc6)cc5n(Cc5nnn(CC)n5)c4=O)CC3)cc1)=N[C@@H]1CCSC[C@H]21 [Example 40, 3-[1-({4-[(4aR,10bR)-9-ethoxy-8-methoxy-3,4,4a,10b-tetrahydro-1H-thiopyrano[4,3-c]isoquinolin-6-yl]phenyl}carbonyl)piperidin-4-yl]-1-[(2-ethyl-2H-tetrazol-5-yl)methyl]-6-(4-fluorophenyl)thieno[3,2-d]pyrimidine-2,4(1H,3H)-dione] | < 10 | > 10
2 | CCOc1cc2c(cc1OC)C(c1ccc(C(=O)N3CCC(n4c(=O)c5sc(-c6ccccc6)cc5n(Cc5cnn(CC)n5)c4=O)CC3)cc1)=N[C@@H]1CCSC[C@H]21 [Example 21, 3-[1-({4-[(4aR,10bR)-9-ethoxy-8-methoxy-3,4,4a,10b-tetrahydro-1H-thiopyrano[4,3-c]isoquinolin-6-yl]phenyl}carbonyl)piperidin-4-yl]-1-[(2-ethyl-2H-1,2,3-triazol-4-yl)methyl]-6-phenylthieno[3,2-d]pyrimidine-2,4(1H,3H)-dione] | 10 to 100 | 1 to 10
3 | CCn1nnc(Cn2c(=O)n(C3CCN(C(=O)c4ccc(C5=N[C@@H]6CCSC[C@@H]6c6cc(OC)c(OC)cc65)cc4)CC3)c(=O)c3sc(-c4ccccc4)cc32)n1 [Example 59, 3-[1-({4-[(4aR,10bR)-8,9-dimethoxy-3,4,4a,10b-tetrahydro-1H-thiopyrano[4,3-c]isoquinolin-6-yl]phenyl}carbonyl)piperidin-4-yl]-1-[(2-ethyl-2H-tetrazol-5-yl)methyl]-6-phenylthieno[3,2-d]pyrimidine-2,4(1H,3H)-dione] | < 10 | > 10
4 | CCOc1cc2c(cc1OC)C(c1ccc(C(=O)N3CCC(n4c(=O)c5sc(-c6ccccc6)cc5n(Cc5cnc(CC)o5)c4=O)CC3)cc1)=N[C@@H]1CCSC[C@H]21 [Example 9, 3-[1-({4-[(4aR,10bR)-9-ethoxy-8-methoxy-3,4,4a,10b-tetrahydro-1H-thiopyrano[4,3-c]isoquinolin-6-yl]phenyl}carbonyl)piperidin-4-yl]-1-[(2-ethyl-1,3-oxazol-5-yl)methyl]-6-phenylthieno[3,2-d]pyrimidine-2,4(1H,3H)-dione] | 10 to 100 | 1 to 10
5 | CCOc1cc2c(cc1OC)C(c1ccc(C(=O)N3CCC(n4c(=O)c5sc(-c6ccccc6)cc5n(Cc5nnn(CC)n5)c4=O)CC3)cc1)=N[C@@H]1CCSC[C@H]21 [Example 14, 3-[1-({4-[(4aR,10bR)-9-ethoxy-8-methoxy-3,4,4a,10b-tetrahydro-1H-thiopyrano[4,3-c]isoquinolin-6-yl]phenyl}carbonyl)piperidin-4-yl]-1-[(2-ethyl-2H-tetrazol-5-yl)methyl]-6-phenylthieno[3,2-d]pyrimidine-2,4(1H,3H)-dione] | < 10 | > 10
6 | CCOc1cc2c(cc1OC)C(c1cccc(C(=O)N3CCC(n4c(=O)c5sc(-c6ccc7c(c6)OCO7)cc5n(Cc5nnn(CC)n5)c4=O)CC3)c1)=N[C@@H]1CCSC[C@H]21 [Example 31, 6-(1,3-benzodioxol-5-yl)-3-[1-({3-[(4aR,10bR)-9-ethoxy-8-methoxy-3,4,4a,10b-tetrahydro-1H-thiopyrano[4,3-c]isoquinolin-6-yl]phenyl}carbonyl)piperidin-4-yl]-1-[(2-ethyl-2H-tetrazol-5-yl)methyl]thieno[3,2-d]pyrimidine-2,4(1H,3H)-dione] | < 10 | > 10
7 | CCOc1cc2c(cc1OC)C(c1ccc(C(=O)N3CCC(n4c(=O)c5sc(-c6ccccc6)cc5n(Cc5nc(CC)no5)c4=O)CC3)cc1)=N[C@@H]1CCSC[C@H]21 [Example 7, 3-(1-{4-[(4aR,10bR)-9-ethoxy-8-methoxy-3,4,4a,10b-tetrahydro-1H-thiopyrano[4,3-c]isoquinolin-6-yl]benzoyl}piperidin-4-yl)-1-[(3-ethyl-1,2,4-oxadiazol-5-yl)methyl]-6-phenylthieno[3,2-d]pyrimidine-2,4(1H,3H)-dione] | < 10 | 1 to 10
8 | CCOc1cc2c(cc1OC)C(c1ccc(C(=O)N3CCC(n4c(=O)c5sc(-c6ccc(F)cc6OC)cc5n(Cc5nnn(CC)n5)c4=O)CC3)cc1)=N[C@@H]1CCSC[C@H]21 [Example 32, 3-[1-({4-[(4aR,10bR)-9-ethoxy-8-methoxy-3,4,4a,10b-tetrahydro-1H-thiopyrano[4,3-c]isoquinolin-6-yl]phenyl}carbonyl)piperidin-4-yl]-1-[(2-ethyl-2H-tetrazol-5-yl)methyl]-6-(4-fluoro-2-methoxyphenyl)thieno[3,2-d]pyrimidine-2,4(1H,3H)-dione] | < 10 | 1 to 10
9 | CCOc1cc2c(cc1OC)C(c1ccc(C(=O)N3CCC(n4c(=O)c5sc(-c6ccccc6)cc5n(Cc5nc(CC)ns5)c4=O)CC3)cc1)=N[C@@H]1CCSC[C@H]21 [Example 22, 3-[1-({4-[(4aR,10bR)-9-ethoxy-8-methoxy-3,4,4a,10b-tetrahydro-1H-thiopyrano[4,3-c]isoquinolin-6-yl]phenyl}carbonyl)piperidin-4-yl]-1-[(3-ethyl-1,2,4-thiadiazol-5-yl)methyl]-6-phenylthieno[3,2-d]pyrimidine-2,4(1H,3H)-dione] | 10 to 100 | 1 to 10
